Measured values from US9023789B2, “Amylin analogs and pharmaceutical compositions thereof” (Novo Nordisk A/S, priority 2012, dated 2015).
Numbered stars: 1 amine (or outer) side, 2 acyl side, 3 side chain; on linkers, the order of the positions; unused ones are H or OH. Bridge positions count the residues as written; N and C are the ends. Side chains are listed from the residue outwards. Peptide text beside a SMILES is read from it. * marks the point of attachment. C20 diacid = O=C(O)CCCCCCCCCCCCCCCCCCC(=O)*; γGlu = O=C(O)[C@H](CCC(=O)[*:2])N[*:1]; AEEA = NCCOCCOCC(=O)O

Experiment: ASSAY (III) ThT fibrillation assay for physical stability
Type: physicochemical
Method in brief: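 Physical stability scored by ThT fluorescence (444 nm excitation, 485 nm emission) tracked every 20 min during 37 °C incubation with 960 rpm shaking, ThT at 1 μM final. Values are replicate means with SD at chosen times; HPLC against pramlintide standard gives initial and post-assay soluble concentrations.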

Q: For CC[C@H](C)[C@H](NC(=O)[C@H](C)NC(=O)CNC(=O)[C@H](Cc1ccccc1)NC(=O)[C@H](CC(N)=O)NC(=O)[C@@H]1CCCN1C(=O)[C@H](CO)NC(=O)[C@H](CO)NC(=O)[C@H](Cc1c[nH]cn1)NC(=O)[C@H](CCCNC(=N)N)NC(=O)[C@H](CC(C)C)NC(=O)[C@H](Cc1ccccc1)NC(=O)[C@H](Cc1c[nH]cn1)NC(=O)[C@H](C)NC(=O)[C@H](CC(C)C)NC(=O)[C@H](CCCNC(=N)N)NC(=O)[C@H](CCC(N)=O)NC(=O)[C@@H](NC(=O)[C@H](C)NC(=O)[C@@H]1CSSC[C@H](NC(=O)[C@@H](N)CCCCNC(=O)CC[C@H](NC(=O)CC[C@H](NC(=O)CCCCCCCCCCCCCCCCCCC(=O)O)C(=O)O)C(=O)O)C(=O)N[C@@H](CC(N)=O)C(=O)N[C@@H]([C@@H](C)O)C(=O)N[C@@H](C)C(=O)N[C@@H]([C@@H](C)O)C(=O)N1)[C@@H](C)O)C(=O)N1CCC[C@H]1C(=O)N[C@@H](CO)C(=O)N[C@@H](CO)C(=O)N[C@H](C(=O)N[C@@H](CC(N)=O)C(=O)N[C@H](C(=O)NCC(=O)N[C@@H](CO)C(=O)N[C@@H](CC(N)=O)C(=O)N[C@H](C(=O)N[C@@H](Cc1ccc(O)cc1)C(N)=O)[C@@H](C)O)C(C)C)[C@@H](C)O [Example 92], which “ThT pH 4.0 lag time (h)” value is on record?
A: 8 h

Q: Which “ThT pH 4.0 lag time (h)” value does the source give for CC[C@H](C)[C@H](NC(=O)[C@H](C)NC(=O)CNC(=O)[C@H](Cc1ccccc1)NC(=O)[C@H](CC(N)=O)NC(=O)[C@@H]1CCCN1C(=O)[C@H](CO)NC(=O)[C@H](CO)NC(=O)[C@H](Cc1c[nH]cn1)NC(=O)[C@H](CCCNC(=N)N)NC(=O)[C@H](CC(C)C)NC(=O)[C@H](Cc1ccccc1)NC(=O)[C@H](CC(N)=O)NC(=O)[C@H](C)NC(=O)[C@H](CC(C)C)NC(=O)[C@H](CCCNC(=N)N)NC(=O)[C@H](CCC(N)=O)NC(=O)[C@@H](NC(=O)[C@H](C)NC(=O)[C@@H]1CSSC[C@H](NC(=O)[C@@H](N)CCCCNC(=O)COCCOCCNC(=O)CCCCCCCCCCCCCCCCCCC(=O)O)C(=O)N[C@@H](CC(N)=O)C(=O)N[C@@H]([C@@H](C)O)C(=O)N[C@@H](C)C(=O)N[C@@H]([C@@H](C)O)C(=O)N1)[C@@H](C)O)C(=O)N1CCC[C@H]1C(=O)N[C@@H](CO)C(=O)N[C@@H](CO)C(=O)N[C@H](C(=O)N[C@@H](CC(N)=O)C(=O)N[C@H](C(=O)NCC(=O)N[C@@H](Cc1c[nH]cn1)C(=O)N[C@@H](CC(N)=O)C(=O)N[C@H](C(=O)N[C@@H](Cc1ccc(O)cc1)C(N)=O)[C@@H](C)O)C(C)C)[C@@H](C)O [Example 91] here?
A: 4 h

Q: With CC[C@H](C)[C@H](NC(=O)[C@H](C)NC(=O)CNC(=O)[C@H](Cc1ccccc1)NC(=O)[C@H](CC(N)=O)NC(=O)[C@@H]1CCCN1C(=O)[C@H](CO)NC(=O)[C@H](CO)NC(=O)[C@H](Cc1c[nH]cn1)NC(=O)[C@H](CCCNC(=N)N)NC(=O)[C@H](CC(C)C)NC(=O)[C@H](Cc1ccccc1)NC(=O)[C@H](CC(N)=O)NC(=O)[C@H](C)NC(=O)[C@H](CC(C)C)NC(=O)[C@H](CCCNC(=N)N)NC(=O)[C@H](CCC(N)=O)NC(=O)[C@@H](NC(=O)[C@H](C)NC(=O)[C@@H]1CSSC[C@H](NC(=O)[C@@H](N)CCCCNC(=O)COCCOCCNC(=O)CC[C@H](NC(=O)CCCCCCCCCCCCCCCCCCC(=O)O)C(=O)O)C(=O)N[C@@H](CC(N)=O)C(=O)N[C@@H]([C@@H](C)O)C(=O)N[C@@H](C)C(=O)N[C@@H]([C@@H](C)O)C(=O)N1)[C@@H](C)O)C(=O)N1CCC[C@H]1C(=O)N[C@@H](CO)C(=O)N[C@@H](CO)C(=O)N[C@H](C(=O)N[C@@H](CC(N)=O)C(=O)N[C@H](C(=O)NCC(=O)N1CCC[C@H]1C(=O)N[C@@H](Cc1c[nH]cn1)C(=O)N[C@H](C(=O)N[C@@H](Cc1ccc(O)cc1)C(N)=O)[C@@H](C)O)C(C)C)[C@@H](C)O [Example 58] (H-K([AEEA-γGlu-C20 diacid])CNTATCATQRLANFLRHSSPNFGAIPSSTNVGPHTY-NH2; disulfide 2-7) as the compound, how does the “ThT pH 4.0 lag time (h)” value read?
A: 38 h

Q: For CC[C@H](C)[C@H](NC(=O)[C@H](C)NC(=O)CNC(=O)[C@H](Cc1ccccc1)NC(=O)[C@H](CC(N)=O)NC(=O)[C@@H]1CCCN1C(=O)[C@H](CO)NC(=O)[C@H](CO)NC(=O)[C@H](Cc1c[nH]cn1)NC(=O)[C@H](CCCNC(=N)N)NC(=O)[C@H](CC(C)C)NC(=O)[C@H](Cc1ccccc1)NC(=O)CNC(=O)[C@H](C)NC(=O)[C@H](CC(C)C)NC(=O)[C@H](CCCNC(=N)N)NC(=O)[C@H](CCC(N)=O)NC(=O)[C@@H](NC(=O)[C@H](C)NC(=O)[C@@H]1CSSC[C@H](NC(=O)[C@@H](N)CCCCNC(=O)COCCOCCNC(=O)CC[C@H](NC(=O)CCCCCCCCCCCCCCCCCCC(=O)O)C(=O)O)C(=O)N[C@@H](CC(N)=O)C(=O)N[C@@H]([C@@H](C)O)C(=O)N[C@@H](C)C(=O)N[C@@H]([C@@H](C)O)C(=O)N1)[C@@H](C)O)C(=O)N1CCC[C@H]1C(=O)N[C@@H](CO)C(=O)N[C@@H](CO)C(=O)N[C@H](C(=O)N1CCC[C@H]1C(=O)N[C@H](C(=O)NCC(=O)N[C@@H](CO)C(=O)N[C@@H](CC(N)=O)C(=O)N[C@H](C(=O)N[C@@H](Cc1ccc(O)cc1)C(N)=O)[C@@H](C)O)C(C)C)[C@@H](C)O [Example 71] (H-K([AEEA-γGlu-C20 diacid])CNTATCATQRLAGFLRHSSPNFGAIPSSTPVGSNTY-NH2; disulfide 2-7), which “ThT pH 4.0 lag time (h)” value is on record?
A: 11 h

Q: With CC[C@H](C)[C@H](NC(=O)[C@H](C)NC(=O)CNC(=O)[C@H](Cc1ccccc1)NC(=O)[C@H](CC(N)=O)NC(=O)[C@@H]1CCCN1C(=O)[C@H](CO)NC(=O)[C@H](CO)NC(=O)[C@H](Cc1c[nH]cn1)NC(=O)[C@H](CCCNC(=N)N)NC(=O)[C@H](CC(C)C)NC(=O)[C@H](Cc1ccccc1)NC(=O)[C@H](CC(N)=O)NC(=O)[C@H](C)NC(=O)[C@H](CC(C)C)NC(=O)[C@H](CCCNC(=N)N)NC(=O)[C@H](CCC(N)=O)NC(=O)[C@@H](NC(=O)[C@H](C)NC(=O)[C@@H]1CSSC[C@H](NC(=O)[C@@H](N)CCCCNC(=O)COCCOCCNC(=O)COCCOCCNC(=O)CC[C@H](NC(=O)CCCCCCCCCCCCCCCCCCC(=O)O)C(=O)O)C(=O)N[C@@H](CC(N)=O)C(=O)N[C@@H]([C@@H](C)O)C(=O)N[C@@H](C)C(=O)N[C@@H]([C@@H](C)O)C(=O)N1)[C@@H](C)O)C(=O)N1CCC[C@H]1C(=O)N[C@@H](CO)C(=O)N[C@@H](CO)C(=O)N[C@H](C(=O)N1CCC[C@H]1C(=O)N[C@H](C(=O)NCC(=O)N[C@@H](CO)C(=O)N[C@@H](CC(N)=O)C(=O)N[C@H](C(=O)N[C@@H](Cc1ccc(O)cc1)C(N)=O)[C@@H](C)O)C(C)C)[C@@H](C)O [Example 96] as the compound, how does the “ThT pH 4.0 lag time (h)” value read?
A: 12 h

Q: For CC[C@H](C)[C@H](NC(=O)[C@H](C)NC(=O)CNC(=O)[C@H](Cc1ccccc1)NC(=O)[C@H](CC(N)=O)NC(=O)[C@@H]1CCCN1C(=O)[C@H](CO)NC(=O)[C@H](CO)NC(=O)[C@H](Cc1c[nH]cn1)NC(=O)[C@H](CCCNC(=N)N)NC(=O)[C@H](CC(C)C)NC(=O)[C@H](Cc1ccccc1)NC(=O)[C@H](C)NC(=O)[C@H](C)NC(=O)[C@H](CC(C)C)NC(=O)[C@H](CCCNC(=N)N)NC(=O)[C@H](CCC(N)=O)NC(=O)[C@@H](NC(=O)[C@H](C)NC(=O)[C@@H]1CSSC[C@H](NC(=O)[C@@H](N)CCCCNC(=O)CC[C@H](NC(=O)CCCCCCCCCCCCCCCCCCC(=O)O)C(=O)O)C(=O)N[C@@H](CC(N)=O)C(=O)N[C@@H]([C@@H](C)O)C(=O)N[C@@H](C)C(=O)N[C@@H]([C@@H](C)O)C(=O)N1)[C@@H](C)O)C(=O)N1CCC[C@H]1C(=O)N[C@@H](CO)C(=O)N[C@@H](CO)C(=O)N[C@H](C(=O)N[C@@H](CC(N)=O)C(=O)N[C@H](C(=O)NCC(=O)N[C@@H](Cc1c[nH]cn1)C(=O)N[C@@H](CC(N)=O)C(=O)N[C@H](C(=O)N[C@@H](Cc1ccc(O)cc1)C(N)=O)[C@@H](C)O)C(C)C)[C@@H](C)O [Example 93] (H-K([γGlu-C20 diacid])CNTATCATQRLAAFLRHSSPNFGAIPSSTNVGHNTY-NH2; disulfide 2-7; N-terminus assumed), which “ThT pH 4.0 lag time (h)” value is on record?
A: 16 h

Q: With CC[C@H](C)[C@H](NC(=O)[C@H](C)NC(=O)CNC(=O)[C@H](Cc1ccccc1)NC(=O)[C@H](CC(N)=O)NC(=O)[C@@H]1CCCN1C(=O)[C@H](CO)NC(=O)[C@H](CO)NC(=O)[C@H](Cc1c[nH]cn1)NC(=O)[C@H](CCCNC(=N)N)NC(=O)[C@H](CC(C)C)NC(=O)[C@H](Cc1ccccc1)NC(=O)[C@H](CC(N)=O)NC(=O)[C@H](C)NC(=O)[C@H](CC(C)C)NC(=O)[C@H](CCCNC(=N)N)NC(=O)[C@H](CCC(N)=O)NC(=O)[C@@H](NC(=O)[C@H](C)NC(=O)[C@@H]1CSSC[C@H](NC(=O)[C@@H](N)CCCCNC(=O)COCCOCCNC(=O)COCCOCCNC(=O)CC[C@H](NC(=O)CCCCCCCCCCCCCCCCCCC(=O)O)C(=O)O)C(=O)N[C@@H](CC(N)=O)C(=O)N[C@@H]([C@@H](C)O)C(=O)N[C@@H](C)C(=O)N[C@@H]([C@@H](C)O)C(=O)N1)[C@@H](C)O)C(=O)N1CCC[C@H]1C(=O)N[C@@H](CO)C(=O)N[C@@H](CO)C(=O)N[C@H](C(=O)N[C@@H](CC(N)=O)C(=O)N[C@H](C(=O)NCC(=O)N1CCC[C@H]1C(=O)N[C@@H](CC(N)=O)C(=O)N[C@H](C(=O)N[C@@H](Cc1ccc(O)cc1)C(N)=O)[C@@H](C)O)C(C)C)[C@@H](C)O [Example 98] as the compound, how does the “ThT pH 4.0 lag time (h)” value read?
A: 4 h

Q: For CC[C@H](C)[C@H](NC(=O)[C@H](C)NC(=O)CNC(=O)[C@H](Cc1ccccc1)NC(=O)[C@H](CC(N)=O)NC(=O)[C@@H]1CCCN1C(=O)[C@H](CO)NC(=O)[C@H](CO)NC(=O)[C@H](Cc1c[nH]cn1)NC(=O)[C@H](CCCNC(=N)N)NC(=O)[C@H](CC(C)C)NC(=O)[C@H](Cc1ccccc1)NC(=O)[C@H](CCCNC(=N)N)NC(=O)[C@H](C)NC(=O)[C@H](CC(C)C)NC(=O)[C@H](CCCNC(=N)N)NC(=O)[C@H](CCC(N)=O)NC(=O)[C@@H](NC(=O)[C@H](C)NC(=O)[C@@H]1CSSC[C@H](NC(=O)[C@@H](N)CCCCNC(=O)CC[C@H](NC(=O)CCCCCCCCCCCCCCCCCCC(=O)O)C(=O)O)C(=O)N[C@@H](CC(N)=O)C(=O)N[C@@H]([C@@H](C)O)C(=O)N[C@@H](C)C(=O)N[C@@H]([C@@H](C)O)C(=O)N1)[C@@H](C)O)C(=O)N1CCC[C@H]1C(=O)N[C@@H](CO)C(=O)N[C@@H](CO)C(=O)N[C@H](C(=O)N1CCC[C@H]1C(=O)N[C@H](C(=O)NCC(=O)N[C@@H](CO)C(=O)N[C@@H](CC(N)=O)C(=O)N[C@H](C(=O)N[C@@H](Cc1ccc(O)cc1)C(N)=O)[C@@H](C)O)C(C)C)[C@@H](C)O [Example 63] (H-K([γGlu-C20 diacid])CNTATCATQRLARFLRHSSPNFGAIPSSTPVGSNTY-NH2; disulfide 2-7 (inferred); N-terminus assumed), which “ThT pH 4.0 lag time (h)” value is on record?
A: 45 h
